{"source": "patent US20220196659A1", "about": "“METHOD FOR DETERMINING EFFICACY” (LDN Pharma Limited, priority 2019, published 2022)", "key": {"pERK": {"tested_on": "pERK", "experiment": "PD analysis: Western blotting of PBMCs from normal volunteers after a single naltrexone tablet", "format": "in vivo, human", "details": "Western blot", "experimental": "There were 5 treatment cohorts with 8 normal volunteers in each cohort. […] PBMCs were harvested at 0 and 48 h by ficoll extraction and lysed in cell lysis buffer. Western blotting was then performed on the samples, and pERK, tERK, BAX and p21 measured."}, "[1]": {"tested_on": "CD3+/CD8+ cells (killer T-cells)", "experiment": "CD3+ activation: CD69 expression of PBMCs cultured with LDN or NTX (flow cytometry)", "format": "cell-based", "details": "48 h culture of PBMCs", "experimental": "Peripheral-blood mononuclear cells were isolated from whole blood or from the residue product of leucoreduction of whole blood from pathologically healthy donors using Histopaque-1077. The mononuclear fraction was harvested and red blood cell contamination removed by incubation in hypotonic ammonium chloride. Cells were washed in phosphate buffered saline (PBS) and platelet contamination removed by centrifugation at 200 g for 10 min, re-suspended at a concentration of 1×10^6 ml in RPMI-1640 culture medium. […] Peripheral-blood mononuclear cells were washed twice in wash buffer (PBS containing 1% (v/v) FBS and 0.09% (v/v) NaN3), and stained for 30 min at 4° C. with the relevant and stated antibodies for assessment of immune cell profile. Cells were washed in wash buffer and fixed in 4% paraformaldehyde for 20 min at 4° C. Expressions of the surface markers were analysed using a BD Bioscience LSR II flow cytometer with dedicated proprietary software."}}, "data": [{"smiles": "O=C1CC[C@@]2(O)[C@H]3Cc4ccc(O)c5c4[C@@]2(CCN3CC2CC2)[C@H]1O5", "note": "[naltrexone, morphinan-6-one,17-(cyclopropylmethyl)-4,5-epoxy-3,14-dihydroxy-(5+)]", "values": [{"measurement": "level of pERK expression at 48 h compared to 0 h", "setting": "pERK; single dose 1 mg tablet", "value": "decreased"}, {"measurement": "level of pERK expression at 48 h compared to 0 h", "setting": "pERK; single dose 3 mg tablet", "value": "increased"}, {"measurement": "level of pERK expression at 48 h compared to 0 h", "setting": "pERK; single dose 4.5 mg tablet", "value": "decreased"}, {"measurement": "level of pERK expression at 48 h compared to 0 h", "setting": "pERK; single dose 6 mg tablet", "value": "decreased"}, {"measurement": "level of pERK expression at 48 h compared to 0 h", "setting": "pERK; single dose 10 mg tablet", "value": "decreased"}, {"measurement": "CD69 expression in CD3+/CD8+ cells", "setting": "[1]; 10 nM naltrexone (LDN)", "value": "increased"}, {"measurement": "CD69 expression in CD3+/CD8+ cells", "setting": "[1]; 10 uM naltrexone (NTX)", "value": "did not increase"}]}]}
